Source: ChEMBL document CHEMBL1158338, “Synthesis of (+/-)Abyssinone I and related compounds: Their anti-oxidant and cytotoxic activities” (Eur J Med Chem, 2009)
Calls of active or inactive are those of the source.

Tests used:
[1] = system: Radical scavenging activity; experiment: Antioxidant activity assessed as DPPH radical scavenging activity at 200 ug after 30 mins by UV-visible spectrophotometry; assay type: functional
MCF7 = experiment: Cytotoxicity against human MCF7 cells at 25 to 150 uM after 72 hrs by MTT assay; assay type: functional, cell-based
[2] = Antioxidant activity assessed as ferric ion reducing activity at 200 ug after 20 mins by UV-visible spectrophotometry; assay type: functional

Measured: Activity

O=C(/C=C/c1ccc(O)cc1)c1ccc(O)cc1O
active: [1] | MCF7 | [2]

COc1ccc(/C=C/C(=O)c2ccc(O)cc2O)cc1CC=C(C)C
active: [1] | MCF7 | [2]

CC1(C)C=Cc2cc(/C=C/C(=O)c3ccc(O)cc3O)ccc2O1
active: [1] | MCF7 | [2]

COc1ccc(C2CC(=O)c3ccc(O)cc3O2)cc1 (centres undefined)
active: [1] | MCF7 | [2]

O=C1C[C@@H](c2ccc(O)cc2)Oc2cc(O)ccc21
active: [1] | MCF7 | [2]

CC1(C)C=Cc2cc(C3CC(=O)c4ccc(O)cc4O3)ccc2O1 (centres undefined)
active: [1] | MCF7 | [2]

COc1ccc(/C=C/C(=O)c2ccc(O)cc2O)cc1
active: [1] | MCF7 | [2]

CC(C)=CCc1cc(/C=C/C(=O)c2ccc(O)cc2O)ccc1O
active: [1] | MCF7 | [2]

CC(C)=CCc1cc(C2CC(=O)c3ccc(O)cc3O2)ccc1O (centres undefined)
active: [1] | MCF7 | [2]

CC1(C)CCc2cc(C3CC(=O)c4ccc(O)cc4O3)ccc2O1 (centres undefined)
active: [1] | MCF7 | [2]

CC(C)=CCOc1ccc(/C=C/C(=O)c2ccc(O)cc2O)cc1
active: [1] | MCF7 | [2]

CC1(C)CCc2cc(/C=C/C(=O)c3ccc(O)cc3O)ccc2O1
active: [1] | MCF7 | [2]

COc1ccc(C2CC(=O)c3ccc(O)cc3O2)cc1CC=C(C)C (centres undefined)
active: [1] | MCF7 | [2]
